Key:
[1] = Cytotoxicity against HBE (human bronchial epithelial) cells assessed as reduction in cell viability incubated for 48 hrs by MTT assay; type: toxicity, cell-based
NCI-H446 = assay: Antiproliferative activity against human NCI-H446 cells assessed as reduction in cell viability incubated for 48 hrs by MTT assay; type: functional, cell-based; conditions: NCI-H446, 48 h
A549 = assay: Antiproliferative activity against human A549 cells assessed as reduction in cell viability incubated for 48 hrs by MTT assay; type: functional, cell-based; conditions: A549, 48 h
[2] = Cytotoxicity against human HL7702 cells assessed as reduction in cell viability incubated for 48 hrs by MTT assay; type: toxicity, cell-based; conditions: HL7702 (L02) cells
HepG2 = assay: Antiproliferative activity against human HepG2 cells assessed as reduction in cell viability incubated for 48 hrs by MTT assay; type: functional, cell-based; conditions: HepG2, 48 h

SMILES	IC50 at 48 h [1]	IC50 (NCI-H446)	IC50 (A549)	IC50 at 48 h [2]	IC50 (HepG2)
C=CCc1ccc(OC)c(-c2ccc(OCCCCCCCCCCOC(=O)Cc3c4[n+](cc5c(OC)c(OC)ccc35)CCc3cc5c(cc3-4)OCO5)c(CC=C)c2)c1	5.01 µM	1.57 µM	2.7 µM	2.01 µM	2400 nM
C=CCc1ccc(OCCC[n+]2ccc(/C=C/c3c[nH]c4ccccc34)cc2)c(-c2ccc(OCCC)c(CC=C)c2)c1	9.47 µM	1.74 µM	1.69 µM	1.77 µM	1140 nM
CCCOC(=O)Cc1c2[n+](cc3c(OC)c(OC)ccc13)CCc1cc3c(cc1-2)OCO3	> 30 µM	> 10 µM	15.9 µM	> 30 µM	> 30000 nM
C=CCc1ccc(OC(=O)Cc2c3[n+](cc4c(OC)c(OC)ccc24)CCc2cc4c(cc2-3)OCO4)c(-c2ccc(OCCC)c(CC=C)c2)c1	7.08 µM	5.17 µM	4.12 µM	3.8 µM	2230 nM
CCCCCCOC(=O)Cc1c2[n+](cc3c(OC)c(OC)ccc13)CCc1cc3c(cc1-2)OCO3	10.6 µM	13 µM	6.11 µM	19 µM	> 10000 nM
C=CCc1ccc(OC)c(-c2ccc(OC(=O)Cc3c4[n+](cc5c(OC)c(OC)ccc35)CCc3cc5c(cc3-4)OCO5)c(CC=C)c2)c1	16.1 µM	4.72 µM	5.5 µM	4.21 µM	2850 nM
C=CCc1ccc(OCCCCCC[n+]2ccc(/C=C/c3c[nH]c4ccccc34)cc2)c(-c2ccc(OC)c(CC=C)c2)c1	6.17 µM	2.7 µM	2.54 µM	3.88 µM	1790 nM
C=CCc1ccc(OCCC)c(-c2ccc(OC(=O)Cc3c4[n+](cc5c(OC)c(OC)ccc35)CCc3cc5c(cc3-4)OCO5)c(CC=C)c2)c1	17.9 µM	5.06 µM	5.98 µM	3.39 µM	3020 nM
C=CCc1ccc(OCCCOC(=O)Cc2c3[n+](cc4c(OC)c(OC)ccc24)CCc2cc4c(cc2-3)OCO4)c(-c2ccc(OCCC)c(CC=C)c2)c1	9.5 µM	3.74 µM	5.82 µM	2.6 µM	3870 nM
C=CCc1ccc(OCCCCCC[n+]2ccc(/C=C/c3c[nH]c4ccccc34)cc2)c(-c2ccc(OCCC)c(CC=C)c2)c1	11.1 µM	3.28 µM	4.93 µM	2.34 µM	2350 nM
CCCCCCCCCCCCc1c2[n+](cc3c(OC)c(OC)ccc13)CCc1cc3c(cc1-2)OCO3	1.23 µM	0.65 µM	0.86 µM	2.78 µM	2720 nM
C=CCc1ccc(OCCCCCCCCCCOC(=O)Cc2c3[n+](cc4c(OC)c(OC)ccc24)CCc2cc4c(cc2-3)OCO4)c(-c2ccc(OC)c(CC=C)c2)c1	5.83 µM	3.01 µM	1.88 µM	5 µM	1940 nM
C=CCc1ccc(OCCC)c(-c2ccc(OCCCOC(=O)Cc3c4[n+](cc5c(OC)c(OC)ccc35)CCc3cc5c(cc3-4)OCO5)c(CC=C)c2)c1	6.7 µM	2.44 µM	3.5 µM	3.39 µM	2230 nM
C=CCc1ccc(OCCC)c(-c2ccc(OCCCCCCCCCC[n+]3ccc(/C=C/c4c[nH]c5ccccc45)cc3)c(CC=C)c2)c1	16.5 µM	6.51 µM	9.45 µM	12.3 µM	8130 nM
C=CCc1ccc(OCCCCCCCCCCOC(=O)Cc2c3[n+](cc4c(OC)c(OC)ccc24)CCc2cc4c(cc2-3)OCO4)c(-c2ccc(OCCC)c(CC=C)c2)c1	17.5 µM	5.45 µM	4.32 µM	3.96 µM	4160 nM
C=CCc1ccc(OCCC)c(-c2ccc(OCCCCCCOC(=O)Cc3c4[n+](cc5c(OC)c(OC)ccc35)CCc3cc5c(cc3-4)OCO5)c(CC=C)c2)c1	3.59 µM	1.56 µM	1.59 µM	4.28 µM	1380 nM
C=CCc1ccc(OC)c(-c2ccc(OCCC[n+]3ccc(/C=C/c4c[nH]c5ccccc45)cc3)c(CC=C)c2)c1	20.4 µM	6.34 µM	5.32 µM	8.12 µM	4530 nM
C[n+]1ccc(/C=C/c2c[nH]c3ccccc23)cc1	> 60 µM	> 60 µM	> 60 µM	> 60 µM	> 60000 nM
CCCCCCCCCCOC(=O)Cc1c2[n+](cc3c(OC)c(OC)ccc13)CCc1cc3c(cc1-2)OCO3	4.35 µM	1.72 µM	1.53 µM	3.83 µM	4230 nM
C=CCc1ccc(OCCCCCCCCCC[n+]2ccc(/C=C/c3c[nH]c4ccccc34)cc2)c(-c2ccc(OC)c(CC=C)c2)c1	7.47 µM	3.01 µM	5.69 µM	4.03 µM	3370 nM
C=CCc1ccc(OCCCCCCOC(=O)Cc2c3[n+](cc4c(OC)c(OC)ccc24)CCc2cc4c(cc2-3)OCO4)c(-c2ccc(OCCC)c(CC=C)c2)c1	7.08 µM	2.37 µM	3.41 µM	5.7 µM	1820 nM
C=CCc1ccc(OCCC[n+]2ccc(/C=C/c3c[nH]c4ccccc34)cc2)c(-c2ccc(OC)c(CC=C)c2)c1	9.84 µM	3.29 µM	3.27 µM	4.62 µM	1750 nM
C=CCc1ccc(OCCCCCCOC(=O)Cc2c3[n+](cc4c(OC)c(OC)ccc24)CCc2cc4c(cc2-3)OCO4)c(-c2ccc(OC)c(CC=C)c2)c1	7.06 µM	3.37 µM	3.44 µM	5.7 µM	2390 nM
CCCCCCCCc1c2[n+](cc3c(OC)c(OC)ccc13)CCc1cc3c(cc1-2)OCO3	0.79 µM	2.65 µM	1.72 µM	14.7 µM	18700 nM
COc1ccc2cc3[n+](cc2c1OC)CCc1cc2c(cc1-3)OCO2 [BERBERINE CHLORIDE]	> 50 µM	> 50 µM	> 50 µM	> 50 µM	> 50000 nM
CCCCCCCCCCc1c2[n+](cc3c(OC)c(OC)ccc13)CCc1cc3c(cc1-2)OCO3	1.52 µM	0.83 µM	1.18 µM	3.8 µM	13300 nM
C=CCc1ccc(OC)c(-c2ccc(OCCCCCC[n+]3ccc(/C=C/c4c[nH]c5ccccc45)cc3)c(CC=C)c2)c1	20.4 µM	3.02 µM	3.38 µM	3.56 µM	2680 nM
C=CCc1ccc(OCCCCCCCCCC[n+]2ccc(/C=C/c3c[nH]c4ccccc34)cc2)c(-c2ccc(OCCC)c(CC=C)c2)c1	17.3 µM	7.57 µM	8.07 µM	6.98 µM	5230 nM
C=CCc1ccc(OC)c(-c2ccc(OCCCCCCOC(=O)Cc3c4[n+](cc5c(OC)c(OC)ccc35)CCc3cc5c(cc3-4)OCO5)c(CC=C)c2)c1	5.09 µM	1.4 µM	2.87 µM	4.37 µM	1740 nM

Source: ChEMBL document CHEMBL5543068, “Mitochondrial targeting derivatives of honokiol enhanced selective antitumor activity in NCI-H446 cells and decreased in vivo toxicity in Caenorhabditis elegans” (Eur J Med Chem, 2024)
